Data from ChEMBL document CHEMBL4052772, “Design, synthesis and biological evaluation of novel 4-phenoxyquinoline derivatives containing 3-oxo-3,4-dihydroquinoxaline moiety as c-Met kinase inhibitors” (Bioorg Med Chem, 2017).

Columns and labels:
[1] = system: U-87 MG; test: Antiproliferative activity against human U87MG cells after 72 hrs by MTT assay
[2] = system: HT-29; test: cells; conditions: Homo sapiens, HT-29, 72 h
[3] = system: MKN-45; test: cells; conditions: Homo sapiens, MKN-45, 72 h
Description: Antiproliferative activity against human MKN45 cells after 72 hrs by MTT assay

[4] = system: NCI-H460; test: Antiproliferative activity against human H460 cells after 72 hrs by MTT assay; conditions: NCI-H460, 72 h
[5] = system: A549; test: cells; conditions: Homo sapiens, A549, 72 h
Description: Antiproliferative activity against human A549 cells after 72 hrs by MTT assay

[6] = molecular target: Hepatocyte growth factor receptor (Homo sapiens, UniProt P08581); test: Inhibition of c-Met (unknown origin) using poly (Glu, Tyr) 4:1 as substrate after 30 mins by HTRF assay
Hepatocyte growth factor receptor, sequence (P08581 whole entry): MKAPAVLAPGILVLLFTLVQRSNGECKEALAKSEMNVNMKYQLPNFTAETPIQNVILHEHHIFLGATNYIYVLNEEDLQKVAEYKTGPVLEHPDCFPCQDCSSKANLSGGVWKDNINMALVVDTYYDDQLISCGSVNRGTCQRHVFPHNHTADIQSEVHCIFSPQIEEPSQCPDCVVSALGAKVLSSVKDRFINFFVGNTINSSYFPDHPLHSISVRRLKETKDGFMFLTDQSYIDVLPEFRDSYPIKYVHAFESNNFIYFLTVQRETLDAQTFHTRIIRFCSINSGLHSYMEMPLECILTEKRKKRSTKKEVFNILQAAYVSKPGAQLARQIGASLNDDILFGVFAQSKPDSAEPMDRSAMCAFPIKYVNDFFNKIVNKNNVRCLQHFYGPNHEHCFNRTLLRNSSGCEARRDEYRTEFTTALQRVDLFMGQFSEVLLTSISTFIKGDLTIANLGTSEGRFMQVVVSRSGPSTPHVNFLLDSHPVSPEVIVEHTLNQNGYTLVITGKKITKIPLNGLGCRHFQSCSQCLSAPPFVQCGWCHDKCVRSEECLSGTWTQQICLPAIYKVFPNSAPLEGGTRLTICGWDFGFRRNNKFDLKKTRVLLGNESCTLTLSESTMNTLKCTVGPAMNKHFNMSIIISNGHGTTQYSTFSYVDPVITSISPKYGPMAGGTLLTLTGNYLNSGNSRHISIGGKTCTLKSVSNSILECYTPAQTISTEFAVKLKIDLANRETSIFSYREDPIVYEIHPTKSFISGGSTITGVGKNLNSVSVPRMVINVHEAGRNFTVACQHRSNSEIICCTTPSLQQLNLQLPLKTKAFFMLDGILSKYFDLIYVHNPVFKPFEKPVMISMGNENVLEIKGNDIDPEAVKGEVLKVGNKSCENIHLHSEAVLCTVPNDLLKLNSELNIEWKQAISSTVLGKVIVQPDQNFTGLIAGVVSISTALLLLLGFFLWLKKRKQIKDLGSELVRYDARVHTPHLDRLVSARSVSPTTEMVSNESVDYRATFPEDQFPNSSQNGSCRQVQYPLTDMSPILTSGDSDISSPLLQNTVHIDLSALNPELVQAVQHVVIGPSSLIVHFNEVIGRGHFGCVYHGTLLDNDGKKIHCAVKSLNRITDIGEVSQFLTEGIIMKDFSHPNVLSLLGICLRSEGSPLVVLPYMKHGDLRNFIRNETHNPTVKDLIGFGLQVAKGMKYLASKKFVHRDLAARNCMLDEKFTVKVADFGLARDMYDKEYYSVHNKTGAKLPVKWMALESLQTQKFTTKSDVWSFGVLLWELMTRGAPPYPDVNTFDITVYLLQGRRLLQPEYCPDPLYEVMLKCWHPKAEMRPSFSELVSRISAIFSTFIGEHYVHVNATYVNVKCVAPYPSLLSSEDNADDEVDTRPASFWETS

[7] = molecular target: Vascular endothelial growth factor receptor 2 (Homo sapiens, UniProt P35968); test: Inhibition of VEGFR2 (unknown origin) using poly (Glu, Tyr) 4:1 as substrate after 30 mins by HTRF assay
[8] = molecular target: Epidermal growth factor receptor (Homo sapiens, UniProt P00533); test: Inhibition of EGFR (unknown origin) using poly (Glu, Tyr) 4:1 as substrate after 30 mins by HTRF assay
[9] = molecular target: ALK tyrosine kinase receptor (Homo sapiens, UniProt Q9UM73); test: Inhibition of ALK (unknown origin) using poly (Glu, Tyr) 4:1 as substrate after 30 mins by HTRF assay
ALK tyrosine kinase receptor, sequence (Q9UM73 whole entry): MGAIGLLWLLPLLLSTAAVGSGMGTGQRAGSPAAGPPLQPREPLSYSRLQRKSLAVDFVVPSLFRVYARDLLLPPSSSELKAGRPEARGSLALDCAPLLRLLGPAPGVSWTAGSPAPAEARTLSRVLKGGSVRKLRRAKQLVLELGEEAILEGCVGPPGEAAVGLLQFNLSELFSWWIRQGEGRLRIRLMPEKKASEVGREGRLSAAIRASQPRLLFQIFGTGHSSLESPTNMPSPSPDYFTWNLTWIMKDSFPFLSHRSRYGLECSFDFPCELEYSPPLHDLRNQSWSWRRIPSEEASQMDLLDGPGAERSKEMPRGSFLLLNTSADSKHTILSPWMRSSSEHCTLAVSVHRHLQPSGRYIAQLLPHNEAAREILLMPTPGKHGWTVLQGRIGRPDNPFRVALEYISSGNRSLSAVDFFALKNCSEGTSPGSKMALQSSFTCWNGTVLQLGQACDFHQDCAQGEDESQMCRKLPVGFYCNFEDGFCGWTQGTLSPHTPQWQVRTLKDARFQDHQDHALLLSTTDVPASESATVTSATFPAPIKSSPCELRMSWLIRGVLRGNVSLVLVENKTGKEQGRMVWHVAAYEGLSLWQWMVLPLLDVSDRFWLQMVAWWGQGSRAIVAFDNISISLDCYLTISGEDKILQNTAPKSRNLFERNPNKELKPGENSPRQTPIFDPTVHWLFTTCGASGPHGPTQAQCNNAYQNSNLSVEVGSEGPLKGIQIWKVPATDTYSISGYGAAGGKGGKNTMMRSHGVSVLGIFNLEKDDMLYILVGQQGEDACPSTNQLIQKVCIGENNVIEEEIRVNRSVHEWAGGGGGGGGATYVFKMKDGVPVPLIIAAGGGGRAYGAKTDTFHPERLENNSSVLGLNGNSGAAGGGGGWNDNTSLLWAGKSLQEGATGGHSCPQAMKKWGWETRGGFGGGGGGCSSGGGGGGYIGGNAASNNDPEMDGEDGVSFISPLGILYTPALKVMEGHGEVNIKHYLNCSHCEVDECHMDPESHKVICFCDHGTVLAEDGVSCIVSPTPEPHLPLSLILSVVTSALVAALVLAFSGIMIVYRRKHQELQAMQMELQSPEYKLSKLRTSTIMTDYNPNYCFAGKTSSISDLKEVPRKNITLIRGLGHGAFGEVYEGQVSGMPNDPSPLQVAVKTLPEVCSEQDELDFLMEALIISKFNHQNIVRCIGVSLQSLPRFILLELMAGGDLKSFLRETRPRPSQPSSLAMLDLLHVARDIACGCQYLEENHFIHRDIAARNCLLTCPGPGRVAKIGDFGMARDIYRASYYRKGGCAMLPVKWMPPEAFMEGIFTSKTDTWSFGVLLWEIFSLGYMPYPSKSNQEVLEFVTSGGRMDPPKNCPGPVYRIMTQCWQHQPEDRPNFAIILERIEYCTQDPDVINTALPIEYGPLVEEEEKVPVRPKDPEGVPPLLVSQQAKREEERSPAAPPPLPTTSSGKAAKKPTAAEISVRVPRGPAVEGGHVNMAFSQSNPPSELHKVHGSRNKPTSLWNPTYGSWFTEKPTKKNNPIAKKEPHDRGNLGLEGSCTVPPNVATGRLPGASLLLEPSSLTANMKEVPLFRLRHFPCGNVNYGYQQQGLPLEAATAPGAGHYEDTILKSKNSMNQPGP

[10] = molecular target: Macrophage-stimulating protein receptor (Homo sapiens, UniProt Q04912); test: Inhibition of Ron (unknown origin) using poly (Glu, Tyr) 4:1 as substrate after 30 mins by HTRF assay
Macrophage-stimulating protein receptor, sequence (Q04912 25-304 limits assumed): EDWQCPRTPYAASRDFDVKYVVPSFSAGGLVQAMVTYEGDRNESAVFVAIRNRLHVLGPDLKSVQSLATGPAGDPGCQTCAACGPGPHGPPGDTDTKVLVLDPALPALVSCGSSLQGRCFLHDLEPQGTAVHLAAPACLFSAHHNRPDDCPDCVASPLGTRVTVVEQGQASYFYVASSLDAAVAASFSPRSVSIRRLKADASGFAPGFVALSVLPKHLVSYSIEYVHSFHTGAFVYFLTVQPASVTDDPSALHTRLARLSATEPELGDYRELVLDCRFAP
Macrophage-stimulating protein receptor, sequence (Q04912 310-1400 limits assumed): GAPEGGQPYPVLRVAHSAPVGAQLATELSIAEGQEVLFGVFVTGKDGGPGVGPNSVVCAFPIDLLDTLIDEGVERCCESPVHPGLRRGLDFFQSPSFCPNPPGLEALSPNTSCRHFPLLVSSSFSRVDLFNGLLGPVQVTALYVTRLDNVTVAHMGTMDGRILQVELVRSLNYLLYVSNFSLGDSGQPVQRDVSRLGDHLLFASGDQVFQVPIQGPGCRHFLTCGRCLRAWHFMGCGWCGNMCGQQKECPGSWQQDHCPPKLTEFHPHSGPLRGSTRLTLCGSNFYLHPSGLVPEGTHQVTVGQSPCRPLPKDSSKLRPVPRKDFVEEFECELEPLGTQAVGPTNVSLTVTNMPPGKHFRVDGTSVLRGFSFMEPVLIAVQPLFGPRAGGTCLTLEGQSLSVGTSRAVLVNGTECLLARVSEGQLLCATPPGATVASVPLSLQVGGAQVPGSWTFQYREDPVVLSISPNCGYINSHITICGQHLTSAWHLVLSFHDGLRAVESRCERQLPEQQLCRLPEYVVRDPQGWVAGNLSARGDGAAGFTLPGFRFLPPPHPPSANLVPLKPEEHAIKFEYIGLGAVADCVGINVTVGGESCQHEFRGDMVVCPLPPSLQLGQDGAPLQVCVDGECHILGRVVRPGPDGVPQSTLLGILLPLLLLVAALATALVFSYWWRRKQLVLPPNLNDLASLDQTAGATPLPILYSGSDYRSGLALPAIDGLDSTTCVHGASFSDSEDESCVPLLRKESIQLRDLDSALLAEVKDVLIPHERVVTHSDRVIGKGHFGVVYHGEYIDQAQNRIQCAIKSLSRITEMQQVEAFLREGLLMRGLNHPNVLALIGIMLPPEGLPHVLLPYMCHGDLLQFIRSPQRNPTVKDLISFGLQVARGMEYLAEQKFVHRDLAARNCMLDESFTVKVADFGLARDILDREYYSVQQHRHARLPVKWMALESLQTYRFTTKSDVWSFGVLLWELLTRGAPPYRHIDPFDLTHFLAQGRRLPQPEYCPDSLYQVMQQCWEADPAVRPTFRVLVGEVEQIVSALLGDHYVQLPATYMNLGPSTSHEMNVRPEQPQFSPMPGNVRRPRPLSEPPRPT

[11] = molecular target: Platelet-derived growth factor receptor alpha (Homo sapiens, UniProt P16234); test: Inhibition of PDGFRalpha (unknown origin) using poly (Glu, Tyr) 4:1 as substrate after 30 mins by HTRF assay
[12] = molecular target: Mast/stem cell growth factor receptor Kit (Homo sapiens, UniProt P10721); test: Inhibition of c-Kit (unknown origin) using poly (Glu, Tyr) 4:1 as substrate after 30 mins by HTRF assay
[13] = molecular target: T1, Receptor-type tyrosine-protein kinase FLT3 (Homo sapiens, UniProt P36888); test: Inhibition of Flt3 (unknown origin) using poly (Glu, Tyr) 4:1 as substrate after 30 mins by HTRF assay
T1 sequence (P36888 whole entry): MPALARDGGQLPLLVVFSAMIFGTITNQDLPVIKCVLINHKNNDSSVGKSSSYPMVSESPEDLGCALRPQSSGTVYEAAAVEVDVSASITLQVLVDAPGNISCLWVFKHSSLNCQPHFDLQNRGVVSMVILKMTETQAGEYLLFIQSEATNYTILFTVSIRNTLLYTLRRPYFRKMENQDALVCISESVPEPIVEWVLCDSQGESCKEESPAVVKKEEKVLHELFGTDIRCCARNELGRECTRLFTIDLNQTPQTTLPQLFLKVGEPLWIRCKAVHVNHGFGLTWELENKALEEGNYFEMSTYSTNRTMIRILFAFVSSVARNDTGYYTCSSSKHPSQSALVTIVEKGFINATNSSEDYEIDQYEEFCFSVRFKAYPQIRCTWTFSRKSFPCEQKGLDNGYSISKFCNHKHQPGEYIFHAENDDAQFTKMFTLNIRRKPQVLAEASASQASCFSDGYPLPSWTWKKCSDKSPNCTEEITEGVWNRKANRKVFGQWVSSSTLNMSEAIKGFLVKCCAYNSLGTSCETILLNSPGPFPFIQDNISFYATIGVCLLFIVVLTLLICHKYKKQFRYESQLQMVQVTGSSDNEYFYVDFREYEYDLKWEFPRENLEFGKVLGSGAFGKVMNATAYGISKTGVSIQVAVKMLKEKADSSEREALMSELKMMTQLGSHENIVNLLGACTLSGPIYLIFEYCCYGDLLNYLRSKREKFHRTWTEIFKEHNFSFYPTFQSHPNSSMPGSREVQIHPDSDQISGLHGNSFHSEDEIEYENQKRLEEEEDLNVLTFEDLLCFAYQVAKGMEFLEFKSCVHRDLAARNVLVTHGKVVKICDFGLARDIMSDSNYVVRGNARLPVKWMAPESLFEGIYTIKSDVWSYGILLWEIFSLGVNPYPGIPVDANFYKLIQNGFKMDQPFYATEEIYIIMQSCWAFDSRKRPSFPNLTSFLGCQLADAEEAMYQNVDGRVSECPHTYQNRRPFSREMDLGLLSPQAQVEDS

SMILES | IC50 [1] [nM] | IC50 [2] [nM] | IC50 [3] [nM] | IC50 [4] [nM] | IC50 [5] [nM] | IC50 [6] [nM] | IC50 [7] [nM] | IC50 [8] [nM] | IC50 [9] [nM] | IC50 [10] [nM] | IC50 [11] [nM] | IC50 [12] [nM] | IC50 [13] [nM]
COc1cc2c(Oc3ccc(NC(=O)c4nc5ccccc5n(-c5ccc(Cl)cc5Cl)c4=O)cc3F)ccnc2cc1OCCCN1CCOCC1 | 5040 | 590 | 75 | 640 | 170 |  |  |  |  |  |  |  | 
COc1cc2c(Oc3ccc(NC(=O)c4nc5ccccc5n(-c5cccc(F)c5)c4=O)cc3F)ccnc2cc1OCCCN1CCOCC1 | 1850 | 200 | 390 | 400 | 310 |  |  |  |  |  |  |  | 
COc1cc2c(Oc3ccc(NC(=O)c4nc5ccccc5n(-c5cccc(Cl)c5)c4=O)cc3F)ccnc2cc1OCCCN1CCOCC1 | 980 | 330 | 340 | 530 | 240 |  |  |  |  |  |  |  | 
COc1cc2c(Oc3ccc(NC(=O)c4nc5ccccc5n(-c5ccccc5C(F)(F)F)c4=O)cc3F)ccnc2cc1OCCCN1CCOCC1 | 1780 | 190 | 560 | 280 | 220 |  |  |  |  |  |  |  | 
COc1cc2c(Oc3ccc(NC(=O)c4nc5ccccc5n(-c5ccc(OC(F)(F)F)cc5)c4=O)cc3F)ccnc2cc1OCCCN1CCOCC1 | 1220 | 200 | 260 | 290 | 330 |  |  |  |  |  |  |  | 
COc1cc2c(Oc3ccc(NC(=O)c4nc5ccccc5n(-c5ccc(F)cc5)c4=O)cc3F)ccnc2cc1OCCCN1CCN(C)CC1 |  |  |  |  |  | 0.9 | 152 | 981 | 2840 | 82.6 | 19.1 | 2.45 | 269
COc1cc2c(Oc3ccc(NC(=O)c4nc5ccccc5n(-c5ccc(F)cc5)c4=O)cc3F)ccnc2cc1OCCCN1CCCCC1 |  |  |  |  |  | 8.03 |  |  |  |  |  |  | 
COc1ccc(-n2c(=O)c(C(=O)Nc3ccc(Oc4ccnc5cc(OCCCN6CCOCC6)c(OC)cc45)c(F)c3)nc3ccccc32)c(OC)c1 | 16200 | 1290 | 860 | 2050 | 5110 |  |  |  |  |  |  |  | 
COc1cc2c(Oc3ccc(NC(=O)c4nc5ccccc5n(-c5ccccc5F)c4=O)cc3F)ccnc2cc1OCCCN1CCC(C)CC1 |  |  |  |  |  | 13.1 |  |  |  |  |  |  | 
COc1cc2c(Oc3ccc(NC(=O)c4nc5ccccc5n(-c5ccccc5F)c4=O)cc3F)ccnc2cc1OCCCN1CCOCC1 | 650 | 170 | 29 | 230 | 33 | 4.52 |  |  |  |  |  |  | 
COc1cc2c(Oc3ccc(NC(=O)c4nc5ccccc5n(-c5ccccc5)c4=O)cc3F)ccnc2cc1OCCCN1CCOCC1 | 1720 | 200 | 82 | 1040 | 410 |  |  |  |  |  |  |  | 
COc1cc2c(Oc3ccc(NC(=O)c4nc5ccccc5n(-c5ccc(F)cc5)c4=O)cc3F)ccnc2cc1OCCCN1CCC(C)CC1 |  |  |  |  |  | 3.57 |  |  |  |  |  |  | 

More lines, now with the values ahead:

IC50 [1] [nM] | IC50 [2] [nM] | IC50 [3] [nM] | IC50 [4] [nM] | IC50 [5] [nM] | IC50 [6] [nM] | IC50 [7] [nM] | IC50 [8] [nM] | IC50 [9] [nM] | IC50 [10] [nM] | IC50 [11] [nM] | IC50 [12] [nM] | IC50 [13] [nM] | SMILES
1500 | 150 | 25 | 140 | 50 | 3.23 |  |  |  |  |  |  |  | COc1cc2c(Oc3ccc(NC(=O)c4nc5ccccc5n(-c5ccccc5Cl)c4=O)cc3F)ccnc2cc1OCCCN1CCOCC1
> 32000 | 690 | 660 | 1850 | 1720 |  |  |  |  |  |  |  |  | COc1ccc(-n2c(=O)c(C(=O)Nc3ccc(Oc4ccnc5cc(OCCCN6CCOCC6)c(OC)cc45)c(F)c3)nc3ccccc32)cc1
1060 | 160 | 29 | 280 | 42 | 6.76 |  |  |  |  |  |  |  | COc1cc2c(Oc3ccc(NC(=O)c4nc5ccccc5n(-c5ccc(Cl)cc5)c4=O)cc3F)ccnc2cc1OCCCN1CCOCC1
4170 | 1030 | 580 | 1120 | 2160 |  |  |  |  |  |  |  |  | COc1cc2c(Oc3ccc(NC(=O)c4nc5ccccc5n(-c5ccc(C)cc5)c4=O)cc3F)ccnc2cc1OCCCN1CCOCC1
810 | 110 | 26 | 140 | 30 | 2.35 |  |  |  |  |  |  |  | COc1cc2c(Oc3ccc(NC(=O)c4nc5ccccc5n(-c5ccc(F)cc5)c4=O)cc3F)ccnc2cc1OCCCN1CCOCC1
1170 | 170 | 110 | 210 | 320 |  |  |  |  |  |  |  |  | COc1cc2c(Oc3ccc(NC(=O)c4nc5ccccc5n(-c5ccc(Br)cc5)c4=O)cc3F)ccnc2cc1OCCCN1CCOCC1
